Measurements published in patent publication US5438052A, “Cephalosporin derivatives” (Hoffmann-La Roche Inc., priority 1991, dated 1995).
Values after ≈ are worked out from the molar mass of the structure shown. Where two headings read alike, the source gives them in different places.

Assays:
[1] = tested on: C. freundii 902; assay: Minimum inhibitory concentration in vitro, agar dilution method; format: cell-based; details: Citrobacter freundii
Text: (§1) 1. Minimum Inhibitory Concentration in vitro
(§2) The activities ascertained, minimum inhibitory concentration (MIC) in μg/ml, are compiled in Table 1 hereinafter: […]

[2] = tested on: E. cloacae 908R; assay: as above; format: cell-based; details: Enterobacter cloacae
Text: as §1, §2

[3] = tested on: E. cloacae 908SSi; assay: as above; format: cell-based; details: Enterobacter cloacae
Text: as §1, §2

[4] = tested on: E. coli 25922; assay: as above; format: cell-based; details: Escherichia coli
Text: as §1, §2

[5] = tested on: K. oxytoca 1082; assay: as above; format: cell-based; details: Klebsiella oxytoca
Text: as §1, §2

[6] = tested on: K. pneumoniae 418; assay: as above; format: cell-based; details: Klebsiella pneumoniae
Text: as §1, §2

[7] = tested on: P. aeruginosa 27853; assay: as above; format: cell-based; details: Pseudomonas aeruginosa
Text: as §1, §2

[8] = tested on: P. aeruginosa 799/61; assay: as above; format: cell-based; details: Pseudomonas aeruginosa
Text: as §1, §2

[9] = tested on: P. aeruginosa 799/WT; assay: as above; format: cell-based; details: Pseudomonas aeruginosa
Text: as §1, §2

[10] = tested on: P. aeruginosa BA; assay: as above; format: cell-based; details: Pseudomonas aeruginosa
Text: as §1, §2

[11] = tested on: P. aeruginosa MK1184; assay: as above; format: cell-based; details: Pseudomonas aeruginosa
Text: as §1, §2

[12] = tested on: P. mirabilis 2117; assay: as above; format: cell-based; details: Proteus mirabilis
Text: as §1, §2

[13] = tested on: P. vulgaris 1028; assay: as above; format: cell-based; details: Proteus vulgaris
Text: as §1, §2

[14] = tested on: S. aureus 6538; assay: as above; format: cell-based; details: Staphylococcus aureus
Text: as §1, §2

[15] = tested on: S. marcescens 69438; assay: as above; format: cell-based; details: Serratia marcescens
Text: as §1, §2

[16] = tested on: S. pneumoniae BA; assay: as above; format: cell-based; details: Streptococcus pneumoniae
Text: as §1, §2

[17] = tested on: S. pyogenes 15; assay: as above; format: cell-based; details: Streptococcus pyogenes
Text: as §1, §2

[18] = tested on: E. coli 25922; assay: Experimental systemic septicaemia in the mouse; format: in vivo; details: 96 h
Method in brief: (§3)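 ED50 in mg/kg s.c. is the Probit-derived dose protecting half the mice, judged on survival 4 days after i.p. challenge (about 5-100× 48 h LD50) in 16-20 g albino mice, 5 per group. Dosing was s.c. in 2% Tween 80 at 1 and 3 h, plus 5 h for P. aeruginosa.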

[19] = tested on: Pseudomonas aeruginosa BA; assay: Experimental systemic septicaemia in the mouse; format: in vivo; details: sc, 96 h
Method in brief: as §3

[20] = tested on: S. aureus Schoch; assay: Experimental systemic septicaemia in the mouse; format: in vivo; details: Staphylococcus aureus, sc, 96 h
Method in brief: as §3

[21] = tested on: E. cloacae P99; assay: Minimum inhibitory concentration in vitro, agar dilution method; format: cell-based; details: Enterobacter cloacae
Text: as §1, §2

[22] = tested on: E. aerogenes CF153; assay: as above; format: cell-based; details: Klebsiella aerogenes, CF153
Text: as §1, §2

[23] = C. freundii 902, agar dilution, read-out: MIC
[24] = E. cloacae 908R, agar dilution, read-out: MIC
[25] = E. cloacae 908SSi, agar dilution, read-out: MIC
[26] = E. coli 25922, agar dilution, read-out: MIC
[27] = K. oxytoca 1082, agar dilution, read-out: MIC
[28] = K. pneumoniae 418, agar dilution, read-out: MIC
[29] = P. aeruginosa 27853, agar dilution, read-out: MIC
[30] = P. aeruginosa 799/61, agar dilution, read-out: MIC
[31] = P. aeruginosa 799/WT, agar dilution, read-out: MIC
[32] = P. aeruginosa BA, agar dilution, read-out: MIC
[33] = P. aeruginosa MK1184, agar dilution, read-out: MIC
[34] = P. mirabilis 2117, agar dilution, read-out: MIC
[35] = P. vulgaris 1028, agar dilution, read-out: MIC
[36] = S. aureus 6538, agar dilution, read-out: MIC
[37] = S. marcescens 69438, agar dilution, read-out: MIC
[38] = S. pneumoniae BA, agar dilution, read-out: MIC
[39] = S. pyogenes 15, agar dilution, read-out: MIC
[40] = Escherichia coli, sc, E. coli 25922, albino mice, s.c. 1 and 3 hours after infection, survival after 4 days, read-out: ED50
[41] = P. aeruginosa BA, albino mice, s.c. 1, 3 and 5 hours after infection, survival after 4 days, read-out: ED50
[42] = S. aureus Schoch, albino mice, s.c. 1 and 3 hours after infection, survival after 4 days, read-out: ED50

## Cc1cc(SCC2=C(C(=O)[O-])N3C(=O)[C@@H](NC(=O)/C(=N\OC(C)(C)C(=O)NNC(=O)c4ccc(O)c(O)c4)c4csc(N)n4)[C@H]3SC2)n2nc(CNS(=O)(=O)c3ccc(O)c(O)c3)nc2n1.[Na+] [Example 42, (6R,7R)-7-[(Z)-2-(2-amino-4-thiazolyl)-2-[[1-[3-(3,4-dihydroxybenzoyl)carbazoyl]-1-methylethoxy]imino]acetamido]-3-[[[2-[(3,4-dihydroxybenzenesulphonamido)methyl]-5-methyl-s-triazolo[1,5-a]pyrimidin-7-yl]thio]methyl]-8-oxo-5-thia-1-azabicyclo[4.2.0]oct-2-ene-2-carboxylic acid sodium salt (1:1)]
[1]; 902
  MIC: < 0.1 µg/mL
[2]; 908R
  MIC: 0.5 µg/mL
[3]; 908SSI
  MIC: 4 µg/mL
[4]; 25922
  MIC: < 0.1 µg/mL
[5]; 1082
  MIC: < 0.1 µg/mL
[6]; 418
  MIC: < 0.1 µg/mL
[7]; 27853
  MIC: 0.25 µg/mL
[8]; 799/61
  MIC: < 0.1 µg/mL
[9]; 799/WT
  MIC: < 0.1 µg/mL
[10]
  MIC: < 0.1 µg/mL
[11]; MK1184
  MIC: < 0.1 µg/mL
[12]; 2117
  MIC: 0.12 µg/mL
[13]; 1028
  MIC: 0.25 µg/mL
[14]; 6538
  MIC: 32 µg/mL
[15]; 69438
  MIC: 0.12 µg/mL
[16]
  MIC: 4 µg/mL
[17]; 15
  MIC: 8 µg/mL
[18]; Escherichia coli, 25922, sc
  ED50: 0.005 mg/kg
[19]
  ED50: 0.017 mg/kg
[20]
  ED50: 10 mg/kg

## Nc1nc(/C(=N/OCc2cc(=O)c(O)co2)C(=O)N[C@@H]2C(=O)N3C(C(=O)O)=C(CSc4cc(-c5ccc(O)c(O)c5)nc5ccnn45)CS[C@H]23)cs1 [Example 14, (6R,7R)-7-[(Z)-2-(2-amino-4-thiazolyl)-2-[[(5-hydroxy-4-oxo-4H-pyran-2-yl)methoxy]imino]acetamido]-3-[[[5-(3,4-dihydroxyphenyl)pyrazolo[1,5-a]pyrimidin-7-yl]thio]methyl]-8-oxo-5-thia-1-azabicyclo[4.2.0]oct-2-ene-2-carboxylicacid]
[1]; [23]
  MIC: 1 µg/mL (≈ 1.31 µM)
[2]; [24]
  MIC: 2 µg/mL (≈ 2.62 µM)
[3]; [25]
  MIC: 1 µg/mL (≈ 1.31 µM)
[21]
  MIC: 16 µg/mL (≈ 20.9 µM)
[4]; [26]
  MIC: 0.12 µg/mL (≈ 0.157 µM)
[5]; [27]
  MIC: 0.12 µg/mL (≈ 0.157 µM)
[6]; [28]
  MIC: 0.06 µg/mL (≈ 0.0785 µM)
[7]; [29]
  MIC: 4 µg/mL (≈ 5.23 µM)
[8]; [30]
  MIC: 0.06 µg/mL (≈ 0.0785 µM)
[9]; [31]
  MIC: 1 µg/mL (≈ 1.31 µM)
[10]; [32]
  MIC: 4 µg/mL (≈ 5.23 µM)
[11]; [33]
  MIC: 16 µg/mL (≈ 20.9 µM)
[12]; [34]
  MIC: 0.5 µg/mL (≈ 0.654 µM)
[13]; [35]
  MIC: 0.25 µg/mL (≈ 0.327 µM)
[14]; [36]
  MIC: 16 µg/mL (≈ 20.9 µM)
[15]; [37]
  MIC: 0.25 µg/mL (≈ 0.327 µM)
[16]; [38]
  MIC: 0.5 µg/mL (≈ 0.654 µM)
[17]; [39]
  MIC: 0.5 µg/mL (≈ 0.654 µM)
[18]; [40]
  ED50: 4.4 mg/kg
[19]; [41]
  ED50: 7.1 mg/kg
[20]; [42]
  ED50: > 12 mg/kg

## Cc1cc(SCC2=C(C(=O)O)N3C(=O)[C@@H](NC(=O)/C(=N\OC(C)(C)C(=O)NNC(=O)c4ccc(O)c(O)c4)c4csc(N)n4)[C@H]3SC2)n2nc(COC(=O)c3ccc(O)c(O)c3)nc2n1 [Example 43]
[1]; [23]
  MIC: < 0.1 µg/mL
[2]; [24]
  MIC: 0.12 µg/mL (≈ 0.126 µM)
[3]; [25]
  MIC: 2 µg/mL (≈ 2.11 µM)
[21]
  MIC: 0.12 µg/mL (≈ 0.126 µM)
[4]; [26]
  MIC: < 0.1 µg/mL
[5]; [27]
  MIC: < 0.1 µg/mL
[6]; [28]
  MIC: < 0.1 µg/mL
[7]; [29]
  MIC: 0.25 µg/mL (≈ 0.263 µM)
[8]; [30]
  MIC: < 0.1 µg/mL
[9]; [31]
  MIC: < 0.1 µg/mL
[10]; [32]
  MIC: < 0.1 µg/mL
[11]; [33]
  MIC: < 0.1 µg/mL
[12]; [34]
  MIC: 0.12 µg/mL (≈ 0.126 µM)
[13]; [35]
  MIC: 0.12 µg/mL (≈ 0.126 µM)
[14]; [36]
  MIC: 16 µg/mL (≈ 16.8 µM)
[15]; [37]
  MIC: 0.12 µg/mL (≈ 0.126 µM)
[16]; [38]
  MIC: 4 µg/mL (≈ 4.21 µM)
[17]; [39]
  MIC: 8 µg/mL (≈ 8.42 µM)
[18]; [40]
  ED50: 0.05 mg/kg
[19]; [41]
  ED50: 0.019 mg/kg
[20]; [42]
  ED50: 12 mg/kg

## Cc1cc(SCC2=C(C(=O)[O-])N3C(=O)[C@@H](NC(=O)/C(=N\OCc4ccc(O)c(O)c4F)c4csc(N)n4)[C@H]3SC2)n2nc(CS(=O)(=O)c3ccc(O)c(O)c3)nc2n1.[Na+] [Example 12, (6R,7R)-7-[(Z)-2-(2-amino-4-thiazolyl)-2-[[(2-fluoro-3,4-dihydroxybenzyl)oxy]imino]acetamido]-3-[[[2-[[(3,4-dihydroxyphenyl)sulphonyl]methyl]-5-methyl-s-triazolo[1,5-a]pyrimidin-7-yl]thio]methyl]-8-oxo-5-thia-1-azabicyclo[4.2.0]oct-2-ene-2-carboxylic acid sodium salt (1:1)]
[1]; 902
  MIC: < 0.1 µg/mL
[22]
  MIC: 4 µg/mL
[2]; 908R
  MIC: 2 µg/mL
[3]; 908SSI
  MIC: 4 µg/mL
[21]
  MIC: 8 µg/mL
[4]; 25922
  MIC: < 0.1 µg/mL
[5]; 1082
  MIC: 0.5 µg/mL
[6]; 418
  MIC: < 0.1 µg/mL
[7]; 27853
  MIC: < 0.1 µg/mL
[8]; 799/61
  MIC: < 0.1 µg/mL
[9]; 799/WT
  MIC: < 0.1 µg/mL
[10]
  MIC: < 0.1 µg/mL
[11]; MK1184
  MIC: < 0.1 µg/mL
[12]; 2117
  MIC: 0.12 µg/mL
[13]; 1028
  MIC: 0.25 µg/mL
[14]; 6538
  MIC: 16 µg/mL
[15]; 69438
  MIC: < 0.1 µg/mL
[17]; 15
  MIC: 2 µg/mL
[18]; Escherichia coli, 25922, sc
  ED50: < 0.05 mg/kg
[19]
  ED50: 0.028 mg/kg
[20]
  ED50: 6.2 mg/kg

## Cc1cc(SCC2=C(C(=O)[O-])N3C(=O)[C@@H](NC(=O)/C(=N\OC(C)(C)C(=O)NNC(=O)c4ccc(O)c(O)c4)c4csc(N)n4)[C@H]3SC2)n2nc(CNC(=O)c3ccc(O)c(O)c3)nc2n1.[Na+] [Example 61, (6R,7R)-7-[(Z)-2-(2-amino-4-thiazolyl)-2-[[1-[3-(3,4-dihydroxybenzoyl)carbazoyl]-1-methylethoxy]imino]acetamido]-3-[[[2-[[(3,4-dihydroxybenzoyl)amino]methyl]-5-methyl-s-triazolo[1,5-a]pyrimidin-7-yl]thio]methyl]-8-oxo-5-thiaazabicyclo[4.2.0]oct-2-ene-2-carboxylic acid sodium salt (1:1)]
[1]; 902
  MIC: < 0.1 µg/mL
[2]; 908R
  MIC: 0.5 µg/mL
[3]; 908SSI
  MIC: 1 µg/mL
[21]
  MIC: 1 µg/mL
[4]; 25922
  MIC: < 0.1 µg/mL
[5]; 1082
  MIC: < 0.1 µg/mL
[6]; 418
  MIC: < 0.1 µg/mL
[7]; 27853
  MIC: < 0.1 µg/mL
[8]; 799/61
  MIC: < 0.1 µg/mL
[9]; 799/WT
  MIC: < 0.1 µg/mL
[10]
  MIC: < 0.1 µg/mL
[11]; MK1184
  MIC: < 0.1 µg/mL
[12]; 2117
  MIC: < 0.1 µg/mL
[13]; 1028
  MIC: < 0.1 µg/mL
[14]; 6538
  MIC: 16 µg/mL
[15]; 69438
  MIC: < 0.1 µg/mL
[16]
  MIC: 4 µg/mL
[17]; 15
  MIC: 1 µg/mL
[18]; Escherichia coli, 25922, sc
  ED50: < 0.1 mg/kg
[19]
  ED50: 0.06 mg/kg
[20]
  ED50: 8.4 mg/kg
